Measurements from ChEMBL document CHEMBL1131359, “Design of new inhibitors for cdc2 kinase based on a multiple pseudosubstrate structure” (Bioorg Med Chem Lett, 1998).
Values belong to the compound of their own block, whether it stands above or below them. Calls of active or inactive are those of the source. No cut-off for these calls is given here. Residues, ends and D or L forms follow the SMILES beside them. *: point of attachment. X3 = CN(C)CCCn1cc(C2=C(c3cn(CCOCC*)c4ccccc34)C(=O)NC2=O)c2ccccc21; X4 = O=C1NC(=O)C(c2cn(CCOCCOCCOC*)c3ccccc23)=C1c1c[nH]c2ccccc12; X1 = O=C1NC(=O)C(c2cn(CCOCCOCC*)c3ccccc23)=C1c1c[nH]c2ccccc12; X2 = O=C1NC(=O)C(c2cn(CCOCC*)c3ccccc23)=C1c1c[nH]c2ccccc12

How the values were obtained:
[1] = target: Cyclin-dependent kinase 1/cyclin B (Homo sapiens, UniProt P06493); test: Inhibitory concentration was determined by measuring phosphorylation of H1 histone using active human Cell division cycle 2-cyclin B complex; type: protein-complex assay
[2] = target: T1, cAMP-dependent protein kinase (PKA) (Homo sapiens) (UniProt P22694+P17612+P22612); test: Inhibition of protein kinase A at 240 uM; type: protein assay
[3] = target: T2, Cyclin-dependent kinase 1/cyclin B (Homo sapiens) (UniProt P06493+P14635+Q8WWL7+O95067); test: Inhibition of Cell division cycle 2-cyclin B at 24 uM (No inhibition); type: protein-complex assay
[4] = target: T2, Cyclin-dependent kinase 1/cyclin B (Homo sapiens); test: Inhibition of Cell division cycle 2-cyclin B at 2.4 uM (No inhibition); type: protein-complex assay
[5] = Inhibition of Calcium/calmodulin-dependent protein kinase at 24 uM (No inhibition)
[6] = Inhibition of Calcium/calmodulin-dependent protein kinase at 2.4 uM (No inhibition)
[7] = target: T3, Protein kinase C (PKC) (Homo sapiens) (UniProt O94806+P41743+P17252+P05129+Q05655+P05771+Q05513+Q02156+P24723+Q15139+Q04759); test: Inhibition of protein kinase C at 240 uM; type: protein assay
[8] = target: T1, cAMP-dependent protein kinase (PKA) (Homo sapiens); test: Inhibition of protein kinase A at 2.4 uM (No inhibition); type: protein assay
[9] = target: T2, Cyclin-dependent kinase 1/cyclin B (Homo sapiens); test: Inhibition of Cell division cycle 2-cyclin B at 240 uM (Partial inhibition); type: protein-complex assay
[10] = target: T3, Protein kinase C (PKC) (Homo sapiens); test: Inhibition of protein kinase C at 24 uM; type: protein assay
[11] = Inhibition of Calcium/calmodulin-dependent protein kinase at 240 uM (No inhibition)
[12] = target: T3, Protein kinase C (PKC) (Homo sapiens); test: Inhibition of protein kinase C at 2.4 uM; type: protein assay
[13] = target: T1, cAMP-dependent protein kinase (PKA) (Homo sapiens); test: Inhibition of protein kinase A at 24 uM (No inhibition); type: protein assay
[14] = target: T1, cAMP-dependent protein kinase (PKA) (Homo sapiens); test: Inhibition of protein kinase A at 240 uM (No inhibition); type: protein assay
[15] = target: T2, Cyclin-dependent kinase 1/cyclin B (Homo sapiens); test: Inhibition of Cell division cycle 2-cyclin B at 24 uM (Partial inhibition); type: protein-complex assay
[16] = target: T1, cAMP-dependent protein kinase (PKA) (Homo sapiens); test: Inhibition of protein kinase A at 24 uM (partial); type: protein assay
[17] = target: T2, Cyclin-dependent kinase 1/cyclin B (Homo sapiens); conditions: 240 uM
[18] = Inhibition of Calcium/calmodulin-dependent protein kinase at 240 uM (Partial)

- IC50 [1]: 55 µM
SMILES: O=C1NC(=O)C(c2cn(CCOCCOCCOCCO)c3ccccc23)=C1c1c[nH]c2ccccc12

- IC50 [1]: 31 µM
SMILES: CNC(=O)[C@H](CCCCN)NC(=O)[C@H](CCCCN)NC(=O)[C@@H]1CCCN1C(=O)[C@H](CSCCOCCOCCOCCn1cc(C2=C(c3c[nH]c4ccccc34)C(=O)NC2=O)c2ccccc21)NC(C)=O

- IC50 [1]: > 1000 µM
SMILES: CNC(=O)[C@H](CCCCN)NC(=O)[C@H](CCCCN)NC(=O)[C@@H]1CCCN1C(=O)[C@H](CSCCOCCOCCn1cc(C2=C(c3cn(CCCN(C)C)c4ccccc34)C(=O)NC2=O)c2ccccc21)NC(C)=O

- inhibition [2]: > 75%
- inhibition [3]: inactive
- inhibition [4]: inactive
- inhibition [5]: inactive
- inhibition [6]: inactive
- inhibition [7]: > 75%
- inhibition [8]: inactive
- inhibition [9]: Weak activity
- inhibition [10]: > 75%
- inhibition [11]: inactive
- inhibition [12]: > 75%
- inhibition [13]: inactive
- IC50 [1]: 4 µM
SMILES: O=C1NC(=O)C(c2cn(CCOCCO)c3ccccc23)=C1c1c[nH]c2ccccc12

- IC50 [1]: 35 µM
SMILES: CN(C)CCCn1cc(C2=C(c3cn(CCOCCOCCO)c4ccccc34)C(=O)NC2=O)c2ccccc21

- IC50 [1]: 285 µM
SMILES: O=C1NC(=O)C(c2cn(CCOCCOCCO)c3ccccc23)=C1c1c[nH]c2ccccc12

- IC50 [1]: 22 µM
SMILES: CN(C)CCCn1cc(C2=C(c3cn(CCOCCO)c4ccccc34)C(=O)NC2=O)c2ccccc21

- inhibition [3]: inactive
- inhibition [4]: inactive
- inhibition [5]: inactive
- inhibition [6]: inactive
- inhibition [7]: > 75%
- inhibition [8]: inactive
- inhibition [14]: inactive
- inhibition [9]: Weak activity
- inhibition [10]: > 75%
- inhibition [11]: inactive
- inhibition [12]: > 75%
- inhibition [13]: inactive
- IC50 [1]: 4.5 µM
SMILES: CNC(=O)[C@H](CCCCN)NC(=O)[C@H](CCCCN)NC(=O)[C@@H]1CCCN1C(=O)[C@H](CSCCOCCOCCn1cc(C2=C(c3c[nH]c4ccccc34)C(=O)NC2=O)c2ccccc21)NC(C)=O (Ac-C(X1)PKK-NHMe)

- IC50 [1]: 220 µM
SMILES: CNC(=O)[C@H](CCCCN)NC(=O)[C@H](CCCCN)NC(=O)[C@@H]1CCCN1C(=O)[C@H](CO)NC(=O)[C@H](CSCCOCCOCCn1cc(C2=C(c3c[nH]c4ccccc34)C(=O)NC2=O)c2ccccc21)NC(C)=O (Ac-C(X1)SPKK-NHMe)

- IC50 [1]: 98 µM
SMILES: CNC(=O)[C@H](CCCCN)NC(=O)[C@H](CCCCN)NC(=O)[C@@H]1CCCN1C(=O)[C@H](CSCCOCCn1cc(C2=C(c3c[nH]c4ccccc34)C(=O)NC2=O)c2ccccc21)NC(C)=O (Ac-C(X2)PKK-NHMe)

- IC50 [1]: > 1000 µM
SMILES: CNC(=O)[C@H](CCCCN)NC(=O)[C@H](CCCCN)NC(=O)[C@@H]1CCCN1C(=O)[C@H](CSCCOCCn1cc(C2=C(c3cn(CCCN(C)C)c4ccccc34)C(=O)NC2=O)c2ccccc21)NC(C)=O (Ac-C(X3)PKK-NHMe)

- IC50 [1]: 570 µM
SMILES: CNC(=O)[C@H](CCCCN)NC(=O)[C@H](CCCCN)NC(=O)[C@@H]1CCCN1C(=O)[C@H](CO)NC(=O)[C@H](CSCOCCOCCOCCn1cc(C2=C(c3c[nH]c4ccccc34)C(=O)NC2=O)c2ccccc21)NC(C)=O (Ac-C(X4)SPKK-NHMe)

- IC50 [1]: > 1000 µM
SMILES: CNC(=O)[C@H](CCCCN)NC(=O)[C@H](CCCCN)NC(=O)[C@@H]1CCCN1C(=O)[C@H](CS)NC(C)=O (HELM PEPTIDE1{[ac].C.P.K.K.[CN[*:1]]}$$$$V2.0)

SMILES: CN(C)CCCn1cc(C2=C(c3c[nH]c4ccccc34)C(=O)NC2=O)c2ccccc21 [GF-109203]
- inhibition [2]: > 75%
- inhibition [15]: Weak activity
- inhibition [4]: inactive
- inhibition [5]: inactive
- inhibition [16]: Weak activity
- inhibition [6]: inactive
- inhibition [7]: > 75%
- inhibition [8]: inactive
- inhibition [17]: > 75%
- inhibition [10]: > 75%
- inhibition [11]: inactive
- inhibition [12]: > 75%
- IC50 [1]: 19 µM

- inhibition [2]: > 75%
- inhibition [15]: Weak activity
- inhibition [4]: inactive
- inhibition [18]: Weak activity
- inhibition [5]: inactive
- inhibition [16]: Weak activity
- inhibition [6]: inactive
- inhibition [8]: inactive
- inhibition [17]: > 75%
- IC50 [1]: 18 µM
SMILES: O=C1NC(=O)C(c2c[nH]c3ccccc23)=C1c1c[nH]c2ccccc12 [RO-316233]
